Measurements: the NIST ThermoML archive (doi:10.1016/j.fluid.2014.07.015)
Numbers after ± are expanded uncertainties.

Conditions: 101.33 kPa, Liquid, Vibrating tube method

Structure (SMILES)	mass density (278.15 K)	mass density (283.15 K)	mass density (288.15 K)	mass density (293.15 K)	mass density (298.15 K)	mass density (303.15 K)	mass density (308.15 K)	mass density (313.15 K)	mass density (318.15 K)	mass density (323.15 K)	mass density (328.15 K)	mass density (333.15 K)	mass density (338.15 K)	mass density (343.15 K)	mass density (348.15 K)	mass density (353.15 K)
CCCCn1cc[n+](C)c1C.O=S(=O)([N-]S(=O)(=O)C(F)(F)F)C(F)(F)F	1437.39 ± 0.29 kg/m3	1432.61 ± 0.28 kg/m3	1427.91 ± 0.28 kg/m3	1423.31 ± 0.28 kg/m3	1418.69 ± 0.28 kg/m3	1414.07 ± 0.28 kg/m3	1409.46 ± 0.28 kg/m3	1404.86 ± 0.27 kg/m3	1400.25 ± 0.27 kg/m3	1395.67 ± 0.27 kg/m3	1391.1 ± 0.27 kg/m3	1386.54 ± 0.27 kg/m3	1381.98 ± 0.27 kg/m3	1377.44 ± 0.27 kg/m3	1372.92 ± 0.26 kg/m3	1368.39 ± 0.26 kg/m3
CCCC[P+](C)(CCCC)CCCC.O=S(=O)([N-]S(=O)(=O)C(F)(F)F)C(F)(F)F	1270.8 ± 1.4 kg/m3	1266.52 ± 1.4 kg/m3	1262.25 ± 1.4 kg/m3	1257.99 ± 1.4 kg/m3	1253.72 ± 1.4 kg/m3	1249.58 ± 1.4 kg/m3	1245.46 ± 1.4 kg/m3	1241.32 ± 1.4 kg/m3	1237.2 ± 1.4 kg/m3	1233.09 ± 1.4 kg/m3	1228.98 ± 1.4 kg/m3	1224.88 ± 1.3 kg/m3	1220.79 ± 1.3 kg/m3	1216.71 ± 1.3 kg/m3	1212.65 ± 1.3 kg/m3	1208.59 ± 1.3 kg/m3
